Reference: BindingDB's records for PubMed 37713805 (University of Michigan)

Biological target: Mitogen-activated protein kinase kinase kinase 12 (Homo sapiens) (UniProt Q12852)
Test: Binding affinity to DLK (unknown origin) assessed as inhibition constant

Sequence of Mitogen-activated protein kinase kinase kinase 12 (Homo sapiens) (Q12852 whole entry, looked up): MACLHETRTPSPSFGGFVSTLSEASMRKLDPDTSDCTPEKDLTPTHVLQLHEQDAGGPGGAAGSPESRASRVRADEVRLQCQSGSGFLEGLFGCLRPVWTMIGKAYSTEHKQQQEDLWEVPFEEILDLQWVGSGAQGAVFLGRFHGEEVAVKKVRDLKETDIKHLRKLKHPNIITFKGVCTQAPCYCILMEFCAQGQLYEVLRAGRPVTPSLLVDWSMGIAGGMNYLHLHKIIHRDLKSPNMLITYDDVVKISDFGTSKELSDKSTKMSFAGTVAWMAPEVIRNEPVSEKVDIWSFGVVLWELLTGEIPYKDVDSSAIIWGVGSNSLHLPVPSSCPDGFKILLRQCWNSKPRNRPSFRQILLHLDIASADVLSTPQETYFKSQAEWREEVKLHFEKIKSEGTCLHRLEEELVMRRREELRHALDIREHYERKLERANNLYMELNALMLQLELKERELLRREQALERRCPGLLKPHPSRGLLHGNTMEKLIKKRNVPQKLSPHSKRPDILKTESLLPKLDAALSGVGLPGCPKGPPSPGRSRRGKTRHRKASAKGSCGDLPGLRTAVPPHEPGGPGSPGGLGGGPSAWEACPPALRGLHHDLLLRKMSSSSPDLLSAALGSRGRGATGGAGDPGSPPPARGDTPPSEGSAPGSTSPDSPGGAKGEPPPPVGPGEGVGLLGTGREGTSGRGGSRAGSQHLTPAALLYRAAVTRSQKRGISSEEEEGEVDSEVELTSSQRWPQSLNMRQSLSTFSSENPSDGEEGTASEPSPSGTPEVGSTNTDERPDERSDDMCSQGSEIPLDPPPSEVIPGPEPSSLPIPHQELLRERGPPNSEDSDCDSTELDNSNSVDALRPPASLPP

- Ki: 25 nM
Compound: CC(=O)N1CCC(c2cc(Nc3cc(C#N)ccn3)nc(N3CCC(F)(F)C3)c2)CC1
